From patent publication US20230192646A1, “DIHYDRO-CYCLOPENTA-ISOQUINOLINE DERIVATIVES” (UCB Biopharma SRL, priority 2019, published 2023)

Target: T1, IgE-Tb / sFcεR1α-AF488 (WT soluble IgE receptor FcεR1α) (Homo sapiens, UniProt P01854, N146Q/N252Q, form not given)
T1 construct: fused on or other part: LanthaScreen amine-reactive terbium chelate, chemically conjugated (about 4 Tb per IgE-Fc); a label, not a fusion
Assay: In vitro FRET assay of IgE-Tb binding to sFcεR1α-AF488 (WT), 18 hours incubation (examples 17-35, 48-52 and 63)
Details: 0.75 nM IgE-Tb, 0.9 nM sFcεR1α-AF488; 18 hours at room temperature; read-out: FRET IC50 range
Protocol: 86 nmoles of IgE-Fc(N265Q, N371Q) (Young et al., 1995) at 172 μM in 100 mM NaHCO3, pH 9.5 was added to 1 mg of LanthaScreen™ Amine Reactive Tb Chelate (ThermoFisher catalogue number PV3583) and incubated for 16 hours at 20° C. The material was then buffer exchanged into Phosphate Buffered Saline (being, 137 mM NaCl, 2.7 mM KCl, 10 mM Na2HPO4, 1.8 mM K2HPO4, pH 7.4) and the material quantified and the degree of Tb conjugation determined by measuring the absorption at 280 nm and 343 nm.
To a solution of 1.32 μmoles WT FcεR1α, at 377 μM, in 100 mM NaOAc pH 5.5, was slowly added 50 mM sodium periodate (70 μL) in 100 mM NaOAc, pH 5.5, with gentle mixing, to give a final concentration of 1 mM. […]
175 nmoles of protein was added to 1 mg of Alexa Fluor™ 488 hydrazide (Invitrogen) and incubated for 18 hours at 22° C. with gentle mixing. […] The material was quantified, and the degree of Alexa Fluor™ 488 conjugation determined by measuring the absorption at 280 nm and 497 nm. […]
The aim was to measure binding of IgE-Tb to receptor, and the inhibition thereof by compounds, using an in vitro Fluorescence Resonance Energy Transfer (FRET) Assay. […]
Measurement of FRET for each well was carried out by exciting at 337 nm and measuring emission at 490/520 nm using a PHERAstar FSX plate reader (BMG Labtech). FRET ratio was calculated as follows: […]

T1 sequence (P01854 whole entry C105A/N146Q/N252Q, form open, the tested form may be a part): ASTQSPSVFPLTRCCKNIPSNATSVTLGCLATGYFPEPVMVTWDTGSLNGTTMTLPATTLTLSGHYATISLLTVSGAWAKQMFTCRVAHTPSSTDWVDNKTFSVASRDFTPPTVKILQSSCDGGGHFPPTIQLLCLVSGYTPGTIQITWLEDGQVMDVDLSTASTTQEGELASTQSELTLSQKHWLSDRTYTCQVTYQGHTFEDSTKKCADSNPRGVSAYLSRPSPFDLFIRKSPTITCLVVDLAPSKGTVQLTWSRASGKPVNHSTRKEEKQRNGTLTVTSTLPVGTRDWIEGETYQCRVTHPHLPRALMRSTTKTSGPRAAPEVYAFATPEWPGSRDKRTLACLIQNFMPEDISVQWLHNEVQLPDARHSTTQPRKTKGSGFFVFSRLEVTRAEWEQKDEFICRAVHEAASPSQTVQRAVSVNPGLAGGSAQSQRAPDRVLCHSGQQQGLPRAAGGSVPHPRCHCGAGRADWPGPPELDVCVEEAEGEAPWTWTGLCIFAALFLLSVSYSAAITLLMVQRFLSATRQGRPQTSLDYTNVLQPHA

## COc1ccc(CNC(=O)N[C@H]2C[C@H](Nc3cncc(OC)c3)c3c2cc(S(=O)(=O)NCC(C)C)c2cc(C4CC4)ncc32)cc1 (racemic) [Example 18, 1-[(4-methoxyphenyl)methyl]-3-[trans-(7R,9RS)-3-cyclopropyl-9-[(5-methoxypyridin-3-yl)amino]-5-(2-methylpropylsulfamoyl)-8,9-dihydro-7H-cyclopenta[h]isoquinolin-7-yl]urea]
  IC50: 1 to 10 nM
